{"source": "patent US8748445B2", "about": "“Methods for treating glioma” (The UAB Research Foundation, priority 2004, dated 2014)", "key": {"D54-MG glioma cells [1]": {"test_system": "D54-MG glioma cells", "assay": "glutathione levels in tumor sections (monochlorobimane fluorescence)", "format": "in vivo, CB-17 scid mice", "details": "8 mg 2 times per day, 44 days after tumor induction", "description": "The control group and treatment group animals were those described in FIG. 7A above. For these experiments, four mice (two control and two treatment) were sacrificed at 44 days after tumor induction, and brains were rapidly frozen and cryosectioned to […], thawed on ice, and then incubated with 100 μM monochlorobimane for 10 min. Fluorescence intensities were examined using a quantitative fluorescence imaging system comparing side-by-side slices from control group and treatment group animals. In these experiments, 10 slices were examined per animal. […] After treatment with 8 mg sulfasalazine 2 times per day, glutathione levels decreased approximately 30% (from 100+/−5.6 to 71.7+/−7.5 fluorescence units; p 0.01; t test) in tumors as compared with control animals (receiving saline alone). In parallel studies, the same assay was used on cultured glioma cells to validate these readouts. A 30% decrease in glutathione levels correlates with the glutathione depletion achieved with 70 μM sulfasalazine administered for 24 h to cultured cells; the maximal decrease achieved with 250 μM sulfasalazine in cultured U87-MG cells was 68% (data not shown)."}, "D-54MG glioma cells": {"test_system": "D-54MG glioma cells", "assay": "BrdU incorporation, immunocytochemical studies", "format": "cell-based, human", "details": "DAPI co-staining (FIG. 4B)", "description": "BrdU incorporation was measured using an ELISA-based assay. D-54MG cells were grown in the presence or absence of inhibitors for 24 hours and pulsed for 2 hours with BrdU. The cells were cultured for an additional 48 hours and the amount of incorporated BrdU was measured using alkaline phosphatase conjugated to anti-BrdU antibodies. […] The inhibition of DNA synthesis was also seen in immunocytochemical studies."}, "glioma cells": {"test_system": "glioma cells", "assay": "total intracellular glutathione content in glioma cells", "format": "cell-based, human", "description": "To determine if limiting cystine uptake via system Xc reduces the total intracellular glutathione content (GSH and glutathione disulfide), intracellular glutathione concentrations were determined in the presence and absence of sulfasalazine."}, "D54-MG glioma cells [2]": {"test_system": "D54-MG glioma cells", "assay": "histological markers of cell death and proliferation in tumor sections", "format": "in vivo, CB-17 scid mice", "source_text": "To further examine effects of sulfasalazine in vivo at the cellular level, the tumor sections were examined with commonly used histological markers for cell death, including ApopTag/methyl green (FIGS. 8A and 8B) and terminal deoxynucleotidyl transferase-mediated biotinylated UTP nick end labeling (TUNEL) (FIGS. 8C and 8D), and proliferation (Ki-67) (FIGS. 8E and 8F). Multiple fields from several serial sections from two control group and two treatment group animals (see description above regarding FIG. 7A) were examined. […] Indeed, necrosis is a hallmark of grade IV gliomas and a necessary feature for their histopathological grading as such. At a higher resolution (40×), significant cell death was observed as evident from TUNEL (FIG. 8C) and caspase-3 staining (data not shown). In these figures, TUNEL staining is indicated by a lighter green color against a background of DAPI staining."}}}
{"smiles": "O=C(O)c1cc(/N=N/c2ccc(S(=O)(=O)Nc3ccccn3)cc2)ccc1O", "note": "[sulfasalazine]", "values": [{"measurement": "glutathione levels in tumors", "setting": "D54-MG glioma cells [1]; control 100+/−5.6", "value": "71.7+/−7.5 fluorescence units"}, {"measurement": "decrease of glutathione levels in tumors", "setting": "D54-MG glioma cells [1]; versus saline control", "value": "approximately 30%"}, {"measurement": "incorporation of BrdU, immunocytochemistry", "setting": "D-54MG glioma cells", "value": "virtually abolished incorporation of BrdU"}, {"measurement": "intracellular glutathione concentration", "setting": "glioma cells; 0.25 mM, glioma cells D-54MG, U-87MG, U-251MG and primary glioma culture GBM64 (FIG. 2F)", "value": "depleted intracellular glutathione concentration"}, {"measurement": "intracellular glutathione concentration", "setting": "glioma cells; D-54MG glioma cells, sulfasalazine 50-500 μM, time and dose-dependent, after 24 h (FIG. 2D)", "value": "almost complete glutathione depletion"}, {"measurement": "tumor necrosis (ApopTag)", "setting": "D54-MG glioma cells [2]; sulfasalazine-treated animals of FIG. 7A (FIG. 8B)", "value": "almost no evidence for necrosis"}, {"measurement": "Ki-67 index", "setting": "D54-MG glioma cells [2]; sulfasalazine-treated tumor sections, similar to control, no significant difference", "value": "approximately 15"}, {"measurement": "TUNEL labeling in tumor sections", "setting": "D54-MG glioma cells [2]; sulfasalazine-treated versus control (FIG. 8D), not statistically significant", "value": "reduced TUNEL"}, {"measurement": "caspase-3 labeling in tumor sections", "setting": "D54-MG glioma cells [2]; sulfasalazine-treated versus control, data not shown", "value": "reduced"}]}
